Experimental data: US20240368214A1, “POSITIVE NMDA-MODULATING COMPOUNDS AND METHODS OF USE THEREOF” (SAGE THERAPEUTICS, INC., priority 2021, published 2024)
Read-outs that look alike come from different tables or passages of the source.

Target: T1, recombinant human GluN1/GluN2A receptor (Homo sapiens, UniProt Q05586+Q12879)
T1 construct: expressed in transfected cells; host or cells: HEK293, tetracycline-inducible expression
Experiment: Whole-cell patch clamp of mammalian cells (Syncropatch 384i), NMDA modulation
Assay type: cell-based
Conditions: HEK293 cells, human GluN1/GluN2A, glutamate 1 μM / glycine 100 μM, -80 mV, peak amplitude increase; for EC50: read-out: EC50
Source text: Whole-Cell Patch Clamp of Mammalian Cells (Syncropatch 384i (Nanion Technologies))
Whole-cell patch clamp electrophysiology was used to investigate the effects of compounds on GluN1/GluN2A N-methyl-D-aspartate (NMDA) glutamate receptors expressed in mammalian cells.
Human embryonic kidney (HEK293) cells expressing the recombinant human GluN1/GluN2A receptor under the control of a tetracycline-inducible expression system were used. Cells were maintained in Dulbecco's Modified Eagle's Medium (DMEM) with 1% glutamine, 10% Tetracycline System Approved fetal bovine serum (FBS), and NMDA inhibitors. Cells were cultured in a humidified 5% CO2 incubator at 37° C. Cells were induced with 50 ng/ml tetracycline 18-24 hours prior to testing. A cocktail of channel blockers was added to the media to prevent cell death.
Cells were 60-80% confluent at the time of harvest. Cells were detached from the flask TrypLE Enzyme Express (Thermo Fisher) at 37° C., and then cold extracellular solution was added to the flask, followed by incubation at 4° C. and then trituration of the cells. The cell solution was then placed on a shaker on the Syncropatch platform at 10° C. with a shake speed of a minimum 200 rpm for at least 30 minutes prior to testing.
Extracellular (EC) solution (in mM) —140 NaCl, 4 KCl, 5 CaCl2, 10 HEPES, 5 Glucose, pH 7.4 with NaOH. All external solutions contained 0.2% DMSO and 0.01% Kolliphor® EL (C5135, Sigma) throughout the experiment.
Intracellular (IC) solution (in mM) —120 CsF, 10 mM EGTA, 10 NaCl, 10 HEPES, 4 NaATP, 2 MgCl2, pH 7.2 with CsOH.
First, the DMSO Master Plate was prepared, in which the DMSO stock of each test compound was serially diluted in 100% DMSO to 1000× the final assay concentration. Immediately prior to assay testing, the compounds were diluted 1:100 by transferring solutions from the DMSO Mast Plate to the Intermediate Plate pre-filled with EC solution using a Biomek FX automated liquid handling system. Compounds were then diluted further with extracellular solution into two pre-incubation plates—1) compound from the Intermediate Plate was mixed with EC solution at a 1:5 dilution to create a 2× Compound Pre-Incubation Plate which was diluted a further 1:2 when added to the Syncropatch for the initial compound pre-incubation. And 2) compound from the Intermediate plate was mixed with EC solution at a 1:10 Dilution to create the 1× Compound Pre-Incubation Plate, which was used for subsequent compound pre-incubations. Finally, a Compound+Agonist Plate was prepared by mixing compound from the 2× Compound Pre-Incubation Plate with 2× concentration of co-agonists in a 1:1 ratio.
Each experiment sequentially included cell catching, sealing, whole-cell formation, liquid application, recording and data acquisition. Whole-cell patch clamp recordings were performed using multi-hole high resistance chips on the SyncroPatch 384i (Nanion Technologies). A steady-state voltage pulse at -80 mV was applied throughout the assay and a 10 second recording window was triggered around 1 second prior to application of co-agonists. Currents were leak corrected and sampled at 5 kHz.
A fast application was used, in which 5 μl co-agonist was rapidly applied at a speed of 30 μl/s and then rapidly removed from the well. To test for modulator activity, the co-agonists glutamate (1 μM) and glycine (100 μM) were applied three times to show activation reproducibility, followed by 120 seconds pre-incubation of test compound alone. The test compound was then re-applied in the presence of co-agonists two times. This was followed by application of the agonist alone, although test compound may not be fully washed from the well prior to this step. Finally, a saturating concentration of co-agonists (glutamate 100 μM/glycine 100 μM) was applied.
The voltage protocol generation data collection and analysis were performed on PatchControll384 and DataControll384. […]

T1 sequence (Q12879 23-1464, other chains not shown): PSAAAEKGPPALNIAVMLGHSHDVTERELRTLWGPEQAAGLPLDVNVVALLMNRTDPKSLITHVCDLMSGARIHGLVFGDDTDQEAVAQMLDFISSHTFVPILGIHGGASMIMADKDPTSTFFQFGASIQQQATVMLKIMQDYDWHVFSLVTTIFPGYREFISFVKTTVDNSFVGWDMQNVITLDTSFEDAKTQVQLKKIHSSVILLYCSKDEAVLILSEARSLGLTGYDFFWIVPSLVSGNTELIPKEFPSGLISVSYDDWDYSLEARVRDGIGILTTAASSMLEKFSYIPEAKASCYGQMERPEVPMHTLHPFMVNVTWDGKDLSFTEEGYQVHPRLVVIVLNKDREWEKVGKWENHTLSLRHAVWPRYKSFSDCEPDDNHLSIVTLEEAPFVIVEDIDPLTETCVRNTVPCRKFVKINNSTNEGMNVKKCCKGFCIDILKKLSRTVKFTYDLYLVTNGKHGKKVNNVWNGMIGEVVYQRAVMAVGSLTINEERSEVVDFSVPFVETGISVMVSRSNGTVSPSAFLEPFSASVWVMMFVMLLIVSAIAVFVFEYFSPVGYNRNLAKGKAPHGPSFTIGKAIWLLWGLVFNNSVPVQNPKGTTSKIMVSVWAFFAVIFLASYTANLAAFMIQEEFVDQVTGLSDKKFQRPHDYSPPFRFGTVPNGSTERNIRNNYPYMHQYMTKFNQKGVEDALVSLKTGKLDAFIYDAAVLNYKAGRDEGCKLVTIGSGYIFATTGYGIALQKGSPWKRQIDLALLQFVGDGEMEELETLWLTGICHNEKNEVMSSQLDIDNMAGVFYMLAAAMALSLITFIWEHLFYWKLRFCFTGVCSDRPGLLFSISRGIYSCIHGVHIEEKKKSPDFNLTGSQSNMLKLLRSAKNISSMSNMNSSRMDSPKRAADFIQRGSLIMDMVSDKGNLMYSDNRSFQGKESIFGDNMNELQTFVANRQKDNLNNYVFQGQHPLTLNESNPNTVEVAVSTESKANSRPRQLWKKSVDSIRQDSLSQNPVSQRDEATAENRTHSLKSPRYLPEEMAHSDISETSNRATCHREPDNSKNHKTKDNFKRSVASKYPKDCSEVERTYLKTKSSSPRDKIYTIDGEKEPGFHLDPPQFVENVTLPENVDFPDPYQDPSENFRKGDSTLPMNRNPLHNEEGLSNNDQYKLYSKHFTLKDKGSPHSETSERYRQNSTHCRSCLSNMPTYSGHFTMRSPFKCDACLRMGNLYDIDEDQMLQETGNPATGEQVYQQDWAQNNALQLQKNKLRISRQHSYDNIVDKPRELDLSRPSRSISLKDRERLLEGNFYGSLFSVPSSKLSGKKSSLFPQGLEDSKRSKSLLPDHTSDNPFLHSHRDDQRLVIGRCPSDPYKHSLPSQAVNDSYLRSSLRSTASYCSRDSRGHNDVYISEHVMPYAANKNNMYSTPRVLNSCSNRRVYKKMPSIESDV

CC[C@]1(O)CC[C@@]2(C)C(=CC[C@H]3[C@@H]4[C@@H]5C[C@@H]5[C@H]([C@H](C)CCCC(C)(C)O)[C@@]4(C)CC[C@@H]32)C1 [Compound B-20, (2S,4aR,4bS,6aR,7S,7aS,8aR,8bS,8cR)-2-ethyl-7-((R)-6-hydroxy-6-methylheptan-2-yl)-4a,6a-dimethyl-1,2,3,4,4a,4b,5,6,6a,7,7a,8,8a,8b,8c,9-hexadecahydrocyclopropa[4,5]cyclopenta[1,2-a]phenanthren-2-ol]
Emax (Table B-2): 100 to 200% | EC50 (Table B-2): 1 to 100 nM

CC[C@]1(O)CC[C@]2(C)C3=CC[C@]4(C)[C@@H]([C@H](C)CC[C@H](O)C(C)(C)C#N)CC[C@H]4[C@@H]3CC[C@H]2C1 [Compound C-29, (3S,6R)-6-((3S,5S,8S,10S,13R,14S,17R)-3-ethyl-3-hydroxy-10,13-dimethyl-2,3,4,5,6,7,8,10,12,13,14,15,16,17-tetradecahydro-1H-cyclopenta[a]phenanthren-17-yl)-3-hydroxy-2,2-dimethylheptanenitrile]
EC50 (Table C-2): 1 to 100 nM | EC50 (Table E-2): 1 to 100 nM

C[C@H](CC[C@@H](O)C1(C#N)CCC1)[C@H]1CC[C@H]2[C@@H]3CC=C4C[C@@](C)(O)CC[C@]4(C)[C@H]3CC[C@]12C [Compound C-24, 1-((1R,4R)-1-hydroxy-4-((3S,8S,9S,10R,13R,14S,17R)-3-hydroxy-3,10,13-trimethyl-2,3,4,7,8,9,10,11,12,13,14,15,16,17-tetradecahydro-1H-cyclopenta[a]phenanthren-17-yl)pentyl)cyclobutane-1-carbonitrile]
EC50 (Table C-2): 1 to 100 nM

CC[C@]1(O)CC[C@@]2(C)[C@@H](CC[C@H]3[C@@H]4[C@H](C)C[C@H]([C@H](C)CC[C@@](C)(O)C(F)(F)F)[C@@]4(C)CC[C@@H]32)C1 [Compound B-16, (3S,5S,8R,9S,10S,13R,14S,15R,17R)-3-ethyl-10,13,15-trimethyl-17-((2R,5R)-6,6,6-trifluoro-5-hydroxy-5-methylhexan-2-yl)hexadecahydro-1H-cyclopenta[a]phenanthren-3-ol]
Emax (Table B-2): 100 to 200% | EC50 (Table B-2): 100 to 500 nM

CC(C)[C@@H](O)CC[C@@H](C)[C@H]1CC[C@H]2[C@@H]3CC[C@H]4C[C@@](C)(O)CC[C@]4(C)C3=CC[C@]12C [Compound E-12, (3S,5S,8S,10S,13R,14S,17R)-17-((2R,5S)-5-hydroxy-6-methylheptan-2-yl)-3,10,13-trimethyl-2,3,4,5,6,7,8,10,12,13,14,15,16,17-tetradecahydro-1H-cyclopenta[a]phenanthren-3-ol]
Emax (Table E-2): 100 to 200% | EC50 (Table E-2): 1 to 100 nM

C[C@H](CC[C@@H](O)C(C)(C)C#N)[C@H]1CC[C@H]2[C@@H]3CC[C@H]4C[C@@](C)(O)CC[C@]4(C)C3=CC[C@]12C [Compound C-34, (3R,6R)-3-hydroxy-6-((3S,5S,8S,10S,13R,14S,17R)-3-hydroxy-3,10,13-trimethyl-2,3,4,5,6,7,8,10,12,13,14,15,16,17-tetradecahydro-1H-cyclopenta[a]phenanthren-17-yl)-2,2-dimethylheptanenitrile]
EC50 (Table C-2): 1 to 100 nM | EC50 (Table E-2): 1 to 100 nM

CC[C@H](CCCC(C)(C)O)[C@H]1CC[C@H]2[C@@H]3CC[C@H]4C[C@](O)(CC)CC[C@]4(C)[C@H]3CC[C@]12C [Compound A-1, (3S,5S,8R,9S,10S,13R,14S,17R)-3-ethyl-17-((R)-7-hydroxy-7-methyloctan-3-yl)-10,13-dimethylhexadecahydro-1H-cyclopenta[a]phenanthren-3-ol]
Emax (Table A-2): 100 to 200% | EC50 (Table A-2): 1 to 100 nM

C[C@H](CC[C@H](O)C1(C#N)CCC1)[C@H]1CC[C@H]2[C@@H]3CC=C4C[C@@](C)(O)CC[C@]4(C)[C@H]3CC[C@]12C [Compound C-25, 1-((1S,4R)-1-hydroxy-4-((3S,8S,9S,10R,13R,14S,17R)-3-hydroxy-3,10,13-trimethyl-2,3,4,7,8,9,10,11,12,13,14,15,16,17-tetradecahydro-1H-cyclopenta[a]phenanthren-17-yl)pentyl)cyclobutane-1-carbonitrile]
Emax (Table C-2): < 100% | EC50 (Table C-2): 1 to 100 nM

CC[C@@H](C#N)[C@H](O)CC[C@@H](C)[C@H]1CC[C@H]2[C@@H]3CC[C@H]4C[C@](O)(CC)CC[C@]4(C)[C@H]3CC[C@]12C [Compound C-7, (2S,3R,6R)-2-ethyl-6-((3S,5S,8R,9S,10S,13R,14S,17R)-3-ethyl-3-hydroxy-10,13-dimethylhexadecahydro-1H-cyclopenta[a]phenanthren-17-yl)-3-hydroxyheptanenitrile]
Emax (Table C-2): > 200% | EC50 (Table C-2): 1 to 100 nM

CC[C@]1(O)CC[C@@]2(C)[C@@H](CC[C@@H]3[C@@H]2CC[C@]2(C)[C@@H]([C@H](C)CC[C@H](O)C(C)C)[C@H](C)C[C@@H]32)C1 [Compound B-23, (3S,5S,8R,9S,10S,13S,14S,16R,17S)-3-ethyl-17-((2R,5S)-5-hydroxy-6-methylheptan-2-yl)-10,13,16-trimethylhexadecahydro-1H-cyclopenta[a]phenanthren-3-ol]
Emax (Table B-2): > 200% | EC50 (Table B-2): 1 to 100 nM

CC[C@@]1(O)CCC[C@@]2(C)C(=CC[C@H]3[C@@H]4CC[C@H]([C@H](C)CC[C@](C)(O)C(F)(F)F)[C@@]4(C)CC[C@@H]32)C1 [Compound D-16, (1R,3aS,3bS,7R,10aR,10bS,12aR)-7-ethyl-10a,12a-dimethyl-1-((2R,5S)-6,6,6-trifluoro-5-hydroxy-5-methylhexan-2-yl)-1,2,3,3a,3b,4,6,7,8,9,10,10a,10b,11,12,12a-hexadecahydrocyclohepta[a]cyclopenta[f]naphthalen-7-ol]
Emax (Table D-2): < 100% | EC50 (Table D-2): > 1000 nM

CC[C@]1(O)CC[C@H]2[C@@H](CC[C@@H]3[C@@H]2CC[C@]2(C)[C@@H]([C@H](C)CC[C@](C)(O)C(F)(F)F)CC[C@@H]32)C1 [Compound G-1, (3S,5S,8R,9R,10S,13R,14S,17R)-3-ethyl-13-methyl-17-((2R,5S)-6,6,6-trifluoro-5-hydroxy-5-methylhexan-2-yl)hexadecahydro-1H-cyclopenta[a]phenanthren-3-ol]
Emax (Table G-2): > 200% | EC50 (Table G-2): 1 to 100 nM
